Measured values taken from patent EP0342396A1, “Ophthalmic ointments for the treatment of glaucoma, comprising ergot alkaloids” (LEK, tovarna farmacevtskih in kemicnih izdelkov, n.sol.o., priority 1988, dated 1989).

Legend:
glaucoma patients [1] = settings: human, in vivo
Experimental: (§1) The clinical tests on glaucoma patients were performed with an ophthalmic ointment comprising 0.01 % and 0.025 % of dihydro­ergotoxine methanesulfonate or bromocryptine methanesulfonate.
The effect of the ophthalmic ointment comprising 0.025 % of dihydroergotoxine methanesulfonate or bromocryptine methane­sulfonate on the intraocular pressure in both eyes was tested in four male and three female glaucoma patients, agend from 31 to 64 years.
The ointment was applied into the conjunctival sac in the morning and in the evening. Before application, the I.O.P. was measured. This procedure was repeated for five days.

glaucoma patients [2] = experiment: Clinical trial: effect of ophthalmic ointment comprising 0.01 % active substance on intraocular pressure (I.O.P.); settings: human, in vivo
Experimental: as §1
Effect of ophthalmic ointment comprising 0.01 % of dihydroer­gotoxine methanesulfonate or bromocryptine methanesulfonate on the intraocular pressure (I.O.P.) in glaucoma patients
The effect of the ophthalmic ointment comprising 0.01 % of dihydroergotoxine (as base and as methanesulfonate salt) and of bromocryptine methanesulfonate on the intraocular pressure in both eyes was tested in five male and three female glaucoma patients aged from 34 to 62 years.

CC(C)C[C@H]1C(=O)N2CCC[C@H]2[C@]2(O)O[C@](NC(=O)[C@@H]3C=C4c5cccc6[nH]c(Br)c(c56)C[C@H]4N(C)C3)(C(C)C)C(=O)N12 [bromocryptine methanesulfonate]
I.O.P. from which it decreased (glaucoma patients [1]): 4.00 kPa
I.O.P. to which it decreased (glaucoma patients [1]): 2.67 kPa
reduction of intraocular pressure (glaucoma patients [1]): 30%
undesired side effects (glaucoma patients [1]): No undesired side effects
maximum reduction of I.O.P. (glaucoma patients [2]): 21%
time for which the effect (reduction of I.O.P.) was present (glaucoma patients [2]): at least five
